{"source": "ChEMBL document CHEMBL3046387", "about": "“Antidepressant activity of carbamates and urea derivatives” (Med Chem Res, 2012)", "note": "Active and inactive are the calls of the source. The calls are words filed in the database; no cut-off is given here.", "data": [{"system": "Mus musculus", "experiment": "Antidepressant activity in Mus musculus (mouse) assessed as reduction of immobility time at 10 mg/kg after 1 hr measured for 5 min by forced swim test", "type": "functional", "units": {"inhibition in vivo at 10 mg/kg": "%"}, "values": [{"compound": "NNCCc1ccccc1", "note": "[PHENELZINE]", "inhibition in vivo at 10 mg/kg": 15.9}, {"compound": "CCOC(=O)Nc1ccccc1", "note": "[ETHYL PHENYLCARBAMATE]", "inhibition in vivo at 10 mg/kg": 21.6}, {"compound": "O=C(Nc1ccccc1)N1CCN(c2ccccc2)CC1", "inhibition in vivo at 10 mg/kg": 27.7}, {"compound": "CCN(CC)C(=O)Nc1ccc(Cl)cc1", "inhibition in vivo at 10 mg/kg": 7.04}, {"compound": "CCNC(=S)N1CCN(c2ccccc2)CC1", "inhibition": "inactive"}, {"compound": "CCCCCCCOC(=O)Nc1ccccc1", "inhibition in vivo at 10 mg/kg": 32.5}, {"compound": "CCN(CC)C(=O)Nc1ccccc1C(=O)O", "inhibition in vivo at 10 mg/kg": 3.52}, {"compound": "CCN(CC)C(=O)Nc1ccc(C(=O)O)cc1", "inhibition in vivo at 10 mg/kg": 16.7}, {"compound": "CCN(CC)C(=O)Nc1c(C)cccc1C", "inhibition": "inactive"}]}]}
